How the values were obtained:
Mdm2 and p53 levels = experiment: Western blot of Mdm2 and p53 protein levels in cell lines; format: cell-based, human; conditions: 6 hours; for Mdm2 and p53 levels: U2OS, RKO, HCT116 (p53 wild-type), 5 μg/ml; for p53 levels in RKO and RKO-E6 cells: isogenic RKO and RKO-E6 (HPV-E6) cells; for levels of endogenous and ectopically expressed Mdm2: p53-null H1299 cells
Procedure: Cells were plated in 384-well format and treated with MG132 (2 hours) or cycloheximide (30 minutes). Steadylite luminescence buffer (PerkinElmer) was added and the relative luminescence levels determined on a Victor3 Plate Reader. Each graph represents the median of 5 replicates normalized to a no treatment control, and one standard deviation is shown. […] The graphs and EC50 values were determined using Graphpad PRISM®. […] U2OS, RKO, and HCT116 cells (p53 wild-type) were incubated with 5 μg/ml (14 μM) of MEL23, 5 μg/ml (15 μM) of MEL24, or 10 μM of MG132 for 6 hours. Cells were lysed and analyzed by Western blotting using anti-Mdm2, anti-p53, and anti-eIF4E antibodies. NT indicates a no treatment control. […] MCF7 cells (p53 wild-type) were incubated with 30 μg/ml (51 μM) etoposide alone or in combination with 50 μM AlIn or 5 μg/ml (14 μM) MEL23, or 5 μg/ml (15 μM) MEL24 for 16 hours. Cells were lysed and analyzed by Western blotting using anti-MDMX and anti-actin antibodies.
H1229 cells were transfected with Mdm2-Flag or remained untransfected. Cells were treated with 5 μg/ml (14 μM) MEL23, 5 μg/ml (15 μM) MEL24, 10 μM MG132, or 1 μg/ml of doxorubicin for 6 hours. Cells were lysed and analyzed by Western blotting using anti-Mdm2 and anti-actin antibodies. The lower band indicated with a star seen with the Mdm2 antibody is a non-specific band. NT indicates a no treatment control. […] RKO and RK0-E6 cells were treated with 5 μg/ml (14 μM) MEL23, 5 μg/ml (15 μM) MEL24, 10 μM MG132, 0.5 μg/ml doxorubicin, 0.5 μg/ml camptothecin or 25 μg/ml Etoposide for 6 hours. Cells were lysed and analyzed by Western blotting using anti-Mdm2, anti-p53, and anti-actin antibodies. The lower band indicated with a star seen with the anti-Mdm2 antibody is a non-specific band. […] RKO cells were treated with 5 μg/ml (14 μM) MEL23, 5 μg/ml (15 μM) MEL24, 10 μM MG132 or 2 μg/ml doxorubicin for 6 hours. Cells were lysed and analyzed by Western blotting using anti-Mdm2, anti-p53, anti-phospho-Ser15 p53, and anti-eiF4E antibodies.
Cells were seeded and treated with the indicated compound(s). Cells were lysed after each time point in a buffer of 50 mM TrisHCl pH 7.5, 200 mM NaCl, 0.5% NP-40, and 1 complete mini EDTA-free protease inhibitor cocktail tablet per 10 mL of buffer (Roche, Cat. No. 8360170). Protein content was quantified using a Biorad protein assay reagent (Bio-Rad Laboratories, Hercules, Calif., Cat. No. 500-0006). SDS sample buffer was added to the samples, and the mixture was boiled for 5 minutes. Equal amounts of protein were resolved on a 1D SDS-PAGE gel. Following separation proteins were transferred to nitrocellulose membrane, blocked with 5% milk, and then incubated with primary antibody overnight at 4° C. The membrane was incubated with secondary-HRP antibody for 45 minutes at room temperature and developed with SuperSignal West Pico Substrate (Pierce, Rockford, Ill., Cat. No. 34080).
Cells were lysed and analyzed by Western blotting using anti-Mdm2, anti-p53, and anti-actin antibodies. The lower band seen with the Mdm2 antibody is a non-specific band. NT indicates no treatment control.
Referring now to FIG. 28e, endogenous Mdm2 and p53 protein levels with MEL17 treatment are shown. Briefly, U2OS, RKO, and HCT116 cells (p53 wild-type) were incubated with 5 μg/ml of MEL17 or 10 μM of MG132 for 6 hours. Cells were lysed and analyzed by Western blotting using anti-Mdm2, anti-p53, and anti-actin antibodies. The lower band seen with the Mdm2 antibody is a non-specific band.

[1] = tested on: Mdm2-ubiquitin conjugates; experiment: cell-based Mdm2 ubiquitination assay (HA-ubiquitin immunoprecipitation); parameters: species or system human; conditions: Mdm2-luciferase cells, with 10 μM MG132
Procedure: To obtain the results shown in FIG. 4A, Mdm2-luciferase cells were transfected with ubiquitin-HA and treated 8 hours later with 10 μg/ml (28 μM) MEL23, 10 μg/ml (31 μM) MEL24, or a DMSO control. After 16 hours, cells were additionally treated with 10 μM MG132 or a DMSO control. After 3 hours, cells were lysed and immunoprecipitated for 3 hours with anti-HA affinity matrix. Total lysates and immunoprecipitated samples were analyzed by Western blotting using anti-Mdm2 antibody. NT indicates a no treatment control. […] After 8 hours, cells were treated with 10 μg/ml (28 μM) MEL23, 10 μg/ml (31 μM) MEL24, or a DMSO control. After 16 hours, cells were additionally treated with 10 μM MG132 or a DMSO control. After 3 hours cells were lysed and analyzed by Western blotting using anti-p53 antibody. […]
The Mdm2-luciferase cell line was transfected with HA-ubiquitin and pre-treated with 10 μg/ml MEL23 or MEL24, followed by 10 μM MG132. […] Cells lysates were immunoprecipitated with an anti-HA antibody and analyzed by Western blotting. […]
Briefly, Mdm2-luciferase cells were transfected with HA-ubiquitin. […] Input lysates and immunoprecipitated samples were analyzed by Western blotting using anti-Mdm2 antibody.
Briefly, Mdm2-luciferase cells were transfected with HA-ubiquitin. […] Input lysates and immunoprecipitated samples were analyzed by Western blotting using anti-Mdm2 antibody. […]

SMILES | Mdm2 and p53 levels (Mdm2 and p53 levels) | p53 levels in RKO and RKO-E6 cells (Mdm2 and p53 levels) | levels of endogenous and ectopically expressed Mdm2 (Mdm2 and p53 levels) | Mdm2 ubiquitination in cells (Mdm2-ubiquitin conjugates) [1]
CCCCn1c(=O)[nH]c(O)c(C2NCCc3c2[nH]c2ccccc32)c1=O (centres unmarked) [MEL23] | increased | only increased levels of p53 in RKO cells | increased after treatment | significantly less Mdm2-ubiquitin conjugates were immunoprecipitated
Cn1c(O)c(C2NCCc3c2[nH]c2ccccc32)c(=O)n(C)c1=O (centres unmarked) [MEL24] | increased | only increased levels of p53 in RKO cells | increased after treatment | significantly less Mdm2-ubiquitin conjugates were immunoprecipitated

— patent publication US20120135089A1, “E3 LIGASE INHIBITORS” (priority 2009, published 2012)
